Assay results: patent US10653172B2, “Natural stilbenes as sweeteners or sweetener enhancer” (Analyticon Discovery GmbH, priority 2015, dated 2020)

Legend:
panel of 4 panelists = test: Organoleptic test of intrinsic sweet taste against sucrose; assay type: in vivo; settings: 0.5 mg/ml (500 ppm) in non-carbonated mineral water; for sweetness compared with a solution of sucrose 20 mg/ml (control solution): control sucrose 20 mg/ml
Procedure: Organoleptic Test of the Compounds of Formula (I) Against Sucrose
Intrinsic sweet taste: The isolated pure compounds were dissolved in non-carbonated mineral water (“Fonsana Quelle”) in a concentration of 0.5 mg/ml (500 ppm). The sweet taste of each sample was compared by a panel of 4 panelists with a solution of sucrose in a concentration of 20 mg/ml.

[1] = system: panel of 3 sweet sensitive panelists; test: Organoleptic test of sweetness enhancement in combination with sucrose; assay type: in vivo; settings: concentration stated to be near the sweetness detection threshold
Procedure: Organoleptic Test of the Compounds of Formula (I) in Combination with Known Sweeteners
Combination of (I) with Sucrose.
The sweetness enhancement properties of compound Aa and Bb was determined using a sample having a concentration of 100 μg/ml compound Aa and Bb, which is near the sweetness detection threshold, in 7% sucrose solution. The compound Aa and Bb sample was directly compared to samples of 7%, 8% or 9% sucrose, and panelists were instructed to compare the sweetness intensity of the samples. The comparisons were carried out by a panel of 3 sweet sensitive panelists. All samples were presented to panelists in 5 ml aliquots at ambient temperature. Panelists compared the compound Aa and Bb sample to each of the sucrose samples.

Structure (SMILES)	off-taste (panel of 4 panelists)	sweetness compared with a solution of sucrose 20 mg/ml (control solution) (panel of 4 panelists)	sweetness detection threshold [1] [µg/mL]
COc1cc(/C=C/c2cc(O)cc(O)c2)ccc1O[C@@H]1O[C@H](CO)[C@@H](O)[C@H](O)[C@H]1O [Compound Aa, Gnetifolin E]	no significant off-taste	comparable with the control solution	~100
OC[C@H]1O[C@@H](Oc2ccc(/C=C/c3cc(O)cc(O)c3)cc2O)[C@H](O)[C@@H](O)[C@@H]1O [Compound Bb, Piceatannol 4′-O-β-D-glucopyranoside]	no significant off-taste	comparable with the control solution	~100
